Activity calls are given as the source filed them.
Columns and labels:
[1] = biological target: Major prion protein (Homo sapiens, UniProt P04156); type: functional, cell-based
[2] = cells
[3] = biological target: Histone-lysine N-methyltransferase NSD2 (Homo sapiens, UniProt O96028); type: biochemical
[4] = biological target: T1, Estrogen receptor beta (Homo sapiens, UniProt Q92731); assay: ERβ–SRC-3 coactivator interaction inhibitors, confirmation, orthogonal assay, biochemical, ELISA, streptavidin-HRP readout (AID 1060)
[5] = biological target: T2, Estrogen receptor (Homo sapiens, UniProt P03372);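 note: potency for inhibiting coactivator peptide recruitment to the receptor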
T2 sequence (P03372 whole entry): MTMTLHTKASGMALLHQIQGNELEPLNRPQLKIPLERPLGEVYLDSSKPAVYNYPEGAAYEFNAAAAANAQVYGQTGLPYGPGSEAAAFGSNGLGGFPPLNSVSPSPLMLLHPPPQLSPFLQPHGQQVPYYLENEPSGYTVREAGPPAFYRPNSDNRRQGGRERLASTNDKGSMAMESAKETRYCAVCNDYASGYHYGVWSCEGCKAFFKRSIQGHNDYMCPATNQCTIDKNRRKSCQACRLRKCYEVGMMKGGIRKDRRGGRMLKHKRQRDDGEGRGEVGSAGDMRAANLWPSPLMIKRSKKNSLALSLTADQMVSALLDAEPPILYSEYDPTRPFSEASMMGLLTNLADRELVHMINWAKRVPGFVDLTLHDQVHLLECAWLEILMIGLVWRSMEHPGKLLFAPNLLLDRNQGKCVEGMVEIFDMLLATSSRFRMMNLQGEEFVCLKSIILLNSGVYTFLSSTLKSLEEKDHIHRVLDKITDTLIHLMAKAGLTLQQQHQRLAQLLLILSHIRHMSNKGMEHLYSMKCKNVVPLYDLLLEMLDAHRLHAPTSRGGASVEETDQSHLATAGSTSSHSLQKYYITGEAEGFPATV

[6] = biological target: T1, Estrogen receptor beta
[7] = biological target: Mitogen-activated protein kinase 10 (Homo sapiens, UniProt P53779); assay: Dose response biochemical screening assay for inhibitors of c-Jun N-Terminal Kinase 3 (JNK3). [Related pubchem assays: 746 ]
[8] = biological target: NAD-dependent protein deacylase sirtuin-5, mitochondrial (Homo sapiens, UniProt Q9NXA8); assay: SIRT5 desuccinylase inhibitors, dose response, biochemical, fluorescence imaging, cherry-pick, set 5 (AID 720591);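 note: desuccinylation of succinyl peptide AMC substrate read as fluorescence after trypsin release; potency of inhibitors that lower fluorescence and may act on trypsin instead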
[9] = Jurkat T cell cytotoxicity, dose response, cytotoxicity control for P. falciparum gametocyte viability project, luminescence (AID 1117277); type: functional, cell-based;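 note: potency reflects loss of cellular ATP meaning fewer viable cells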
[10] = P. falciparum late gametocyte killing, dose response, luminescence (AID 1117278); type: functional, cell-based;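 note: gametocytes exposed to compound for 24 hours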
[11] = biological target: RNA-editing ligase 1, mitochondrial (Trypanosoma brucei brucei, UniProt P86926); assay: TbREL1 ligase inhibitors, dose response, biochemical, fluorescence, Trypanosoma brucei (AID 1117295); type: functional
[12] = inhibitors of intracellular T. cruzi replication, confirmation, NIH3T3 host cells, beta-gal luminescence (AID 2044); type: functional, cell-based;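 note: intracellular parasites grown in NIH/3T3 mouse fibroblasts as host cells; luminescent beta-galactosidase reporter signal from transgenic T. cruzi replicating inside host cells; inhibitors lower the luminescence signal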
[13] = tested on: INS1; assay: beta cell apoptosis inhibitors, cytokine rescue, dose response, luminescence, retest (AID 449756); type: functional, cell-based; details: Rattus norvegicus;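 note: cell death triggered by IL-1 beta plus TNF-alpha plus IFN-gamma mixture; protective hits raise ATP signal compared with cytokine alone wells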
[14] = cells; remark: listed apart in the source
[15] = cytotoxicity toward NIH3T3 fibroblasts, dose response, counter-screen, cell-based, ATP luminescence, mouse fibroblasts (AID 2010); type: functional;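 note: cells exposed to compound for about 90 hours before reading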
[16] = biological target: Kallikrein-7 (Homo sapiens, UniProt P49862); assay: Fluorescence Intensity-based biochemical primary high throughput dose response assay to identify activators of kallikrein-7 (K7) zymogen.
[17] = LGR2 antagonists, dose response, cell-based, HEK293, CRE-luciferase reporter, cherry pick, set 2 (AID 743343); type: functional;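 note: transfected cells were stimulated with diluted bursicon conditioned medium after compound addition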
[18] = HepG2 cell cytotoxicity, dose response, cytotoxicity control, plate reader, cherry-pick, antagonist series (AID 743416); type: functional, cell-based
[19] = A549 cell cytotoxicity, dose response, cytotoxicity control, plate reader, cherry-pick, antagonist series (AID 743412); type: functional, cell-based
[20] = MC4R antagonists, dose response, counter-screen for LGR2 antagonist project, cell-based, plate reader, cherry pick (AID 743444); type: functional;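 note: transfected HEK 293 cells stimulated with alpha-MSH peptide; potency of inhibitors of the alpha-MSH evoked signal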
[21] = P. falciparum ATP4 D1247Y mutant growth inhibitors, dose response, NITD609-resistant line, SYBR Green, dry powder (AID 1159571); type: functional, cell-based;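 note: parasites synchronized at ring stage by sorbitol before testing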
[22] = cytotoxicity in COV434 cells, dose response, cytotoxicity control for PAX8 inhibitor project, cell-based, plate reader, dry powder, SA7 (AID 743145); type: functional
[23] = P. falciparum 3D7-ScDHODH growth inhibitors, dose response, SYBR Green, dry powder samples (AID 1159570); type: functional, cell-based;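 note: parasite growth measured after 72 hours of compound exposure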
[24] = cytotoxicity in OVCAR4 cells, dose response, cytotoxicity control for PAX8 inhibitor project, cell-based, plate reader, dry powder, SA11 (AID 743150); type: functional; details: OVCAR-4
[25] = biological target: Paired box protein Pax-8 (Homo sapiens, UniProt Q06710); assay: inhibitors of PAX8-driven TPO luciferase reporter, dose response, RMG-I cells, cherry-pick (AID 687027); type: functional, cell-based;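 note: luciferase reporter driven by Pax8 target thyroperoxidase promoter measured by SteadyGlo luminescence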
[26] = cytotoxicity in COV362 ovarian cancer cells, dose response, cytotoxicity control for PAX8 inhibitor project, cell-based, plate reader, dry powder, SA12 (AID 743144); type: functional
[27] = P. falciparum Dd2 growth inhibitors, dose response, SYBR Green, cherry-picked samples (AID 1159567); type: functional, cell-based
[28] = cytotoxicity dependent on PAX8, dose response, cell-based, plate reader, dry powder (AID 743049); type: functional
[29] = P. falciparum Dd2 growth inhibitors, dose response, SYBR Green, dry powder samples (AID 1159566); type: functional, cell-based;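 note: potency for growth inhibition with lower SYBR green DNA signal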
[30] = PAX2 cell-based inhibition, dose response, selectivity assay for PAX8 inhibitor project, plate reader, dry powder samples (AID 743048); type: functional;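 note: HEK293 cells carrying a WT1 promoter luciferase reporter driven by expressed Pax2; potency is for inhibition of Pax2 driven reporter signal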
[31] = PAX5 activity inhibitors, dose response, selectivity assay for PAX8 inhibitor project, cell-based, plate reader, dry powder samples (AID 743047); type: functional;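 note: HEK293 cells carrying a Pax5 driven CD19 promoter luciferase reporter; potency of inhibitors that lower reporter luminescence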
[32] = NIH:OVCAR-3 ovarian cancer cell cytotoxicity, dose response, PAX8 inhibitor project, plate reader, dry powder samples (AID 743044); type: functional, cell-based
[33] = non-specific cell cytotoxicity, dose response, cytotoxicity control for PAX8 inhibitor project, plate reader, dry powder samples (AID 743021); type: functional, cell-based
[34] = IGROV1 ovarian cancer cell cytotoxicity, dose response, PAX8 inhibitor project, plate reader, dry powder samples (AID 743043); type: functional, cell-based; details: IGROV-1
[35] = cytotoxicity in OVCAR8 ovarian cancer cells, dose response, PAX8 project, cell-based, plate reader, dry powder samples (AID 743197); type: functional; details: OVCAR-8
[36] = IOSE-T80 ovarian epithelial cell cytotoxicity, dose response, cytotoxicity control for PAX8 inhibitor project, plate reader, dry powder samples (AID 743045); type: functional, cell-based
[37] = T. cruzi growth inhibition in host cells, dose response, cell-based, plate reader, dry powder, set 2 (AID 652275); type: functional
[38] = HepG2 cell cytotoxicity, dose response, cytotoxicity control, cherry-picks, set 5 (AID 1053118); type: functional, cell-based
[39] = cells; remark: listed apart in the source
[40] = biological target: T3, Voltage-gated N-type calcium channel alpha-1B subunit/Amyloid beta A4 precursor protein-binding family A member 1 (Homo sapiens, UniProt Q00975+Q02410); type: protein assay
[41] = biological target: T3, Voltage-gated N-type calcium channel alpha-1B subunit/Amyloid beta A4 precursor protein-binding family A member 1; type: protein assay; remark: listed apart in the source
[42] = biological target: Albumin (Bos taurus, UniProt P02769); assay: Counterscreen for inhibitors of T-cell receptor (TCR)-CD3 interaction: Fluorescence-based biochemical high throughput dose response assay to identify inhibitors of T-cell receptor (TCR)-CD3 interaction using a TAMRA-labeled BSA probe.; type: functional
[43] = biological target: T4, Zinc finger protein mex-5 (Caenorhabditis elegans, UniProt Q9XUB2); assay: MEX-5/TCR-2 RNA interaction inhibitors, dose response, biochemical, C. elegans, fluorescence polarization (AID 1960)
T4 sequence (Q9XUB2 whole entry): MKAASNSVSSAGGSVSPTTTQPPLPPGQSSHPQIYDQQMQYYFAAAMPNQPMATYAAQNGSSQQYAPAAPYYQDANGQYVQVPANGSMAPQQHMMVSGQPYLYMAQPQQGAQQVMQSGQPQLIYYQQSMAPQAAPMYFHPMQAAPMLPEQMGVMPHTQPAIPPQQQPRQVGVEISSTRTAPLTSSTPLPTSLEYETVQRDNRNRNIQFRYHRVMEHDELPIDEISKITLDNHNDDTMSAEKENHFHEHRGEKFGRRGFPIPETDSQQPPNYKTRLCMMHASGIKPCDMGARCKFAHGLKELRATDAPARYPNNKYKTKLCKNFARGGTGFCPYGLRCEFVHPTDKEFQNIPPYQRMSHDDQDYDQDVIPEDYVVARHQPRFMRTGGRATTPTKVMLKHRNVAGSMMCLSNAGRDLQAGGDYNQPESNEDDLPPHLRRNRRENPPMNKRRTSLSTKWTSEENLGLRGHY

[44] = P. falciparum Dd2 growth inhibitors, dose response, SYBR Green, dry powder samples, set 9 (AID 1159568); type: functional, cell-based
[45] = HepG2 cell cytotoxicity, dose response, cytotoxicity control, cherry-picked samples (AID 1159577); type: functional, cell-based
[46] = HepG2 cell cytotoxicity, dose response, cytotoxicity control, plate reader, dry powder samples (AID 1159569); type: functional, cell-based;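 note: inhibitor potency with signal falling toward the positive control level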

CCOC(=O)CSc1nc(-c2ccccc2)nc2ccc(F)cc12
IC50 [1]: 1.97 µM (active) | IC50 [2]: > 138 µM (inactive)

CCOc1ccc2[nH]c3c(NCCN(CC)CC)ncnc3c2c1
AC50 [3]: 3.43 µM (active)

Cc1occc1-c1nnc(SCc2cc(=O)n3cc(Br)ccc3n2)n1C
IC50 [4]: 0.468 µM (not active) | IC50 [5]: > 50 µM (not active) | IC50 [6]: > 50 µM (not active)

O=C1NC(=O)c2c(NC(=O)C3CCCO3)cccc21 (stereo not given)
IC50 [7]: 56.2 µM (not active)

CCCCC[C@H]1CN(Cc2ccccc2)C(=O)[C@@H]1CC(=O)NCc1ccccc1
AC50 [8]: 14.9 µM (active)

Cc1nnc(NC(=O)c2ccc(S(=O)(=O)N3CCc4ccccc4C3)cc2)o1
IC50 [9]: 80.6 µM (inactive) | IC50 [10]: > 109 µM (inactive)

Cc1ccc(C(C)C)c(OCCNCCc2ccccc2)c1
IC50 [11]: > 96.6 µM (inactive)

CCCOC(=O)c1ccc(-[n+]2c(-c3ccccc3)cc(-c3ccccc3)cc2-c2ccccc2)cc1.[O-][Cl+3]([O-])([O-])[O-]
EC50 [12]: < 0.1 µM (active) | AC50 [13]: 1.82 µM (active) | EC50 [14]: 0.1 µM (active) | IC50 [9]: 6.87 µM (active) | EC50 [15]: > 60 µM (not active) | IC50 [10]: > 109 µM (inactive)

Cc1ccc2nc(N3C(=O)C(O)=C(C(=O)c4ccc(C)o4)C3c3ccc(O)cc3)sc2c1 (stereo not given)
AC50 [8]: 15.1 µM (active)

COC(=O)c1c(-c2cccs2)csc1NC(=O)CN1CCOCC1
IC50 [7]: 55.7 µM (not active)

CN1CCN(C(=O)c2cc3nc(-c4ccco4)cc(C(F)(F)F)n3n2)CC1
EC50 [16]: 11.3 µM (inactive)

COc1ccc2nc(-c3ccccn3)ccc2c1
AC50 [17]: 9.32 µM (active) | AC50 [18]: 29.3 µM (active) | AC50 [19]: > 52 µM (inactive) | AC50 [20]: 13.4 µM (active)

C=C(C)Cn1c2ccc(NC(=O)NCCc3cccs3)cc2c(=O)n1C
EC50 [16]: > 7.72 µM (active)

Cc1cc(C)c2nc(SC3CCOC3=O)cc(C)c2c1 (stereo not given)
IC50 [1]: 3.66 µM (active) | IC50 [2]: > 138 µM (inactive)

CCCC#Cc1ccc([C@H]2[C@@H](CO)N(C(=O)C3CCCCC3)[C@H]2C#N)cc1
AC50 [21]: 2.55 µM (active) | AC50 [22]: 0.000367 µM (active) | AC50 [23]: 0.996 µM (active) | AC50 [24]: 22.8 µM (active) | AC50 [25]: 1.55 µM (active) | AC50 [26]: 0.0864 nM (active) | AC50 [27]: 1.42 µM (active) | AC50 [28]: 12.2 µM (active) | AC50 [29]: 0.541 µM (active) | AC50 [30]: 26.7 µM (active) | AC50 [31]: 19.2 µM (active)

COc1cccc(S(=O)(=O)N2C[C@@H]3N[C@H](C2)[C@@H]3c2ccc(/C=C/c3ccccc3)cc2)c1
AC50 [25]: 9.43 µM (active) | AC50 [32]: 40.8 µM (active) | AC50 [33]: 33.7 µM (active) | AC50 [34]: 58 µM (active) | AC50 [35]: 48.9 µM (active) | AC50 [36]: 36.1 µM (active)

CN(C)C(=O)c1cccc(-c2ccc([C@H]3[C@H](CO)N4CCCCN(C(=O)C5CCC5)C[C@@H]34)cc2)c1
AC50 [37]: 0.296 µM (active)

C[C@H]1CN([C@@H](C)CO)C(=O)c2cc(NC(=O)CCCN(C)C)ccc2O[C@H]1CN(C)Cc1ccc(-c2ccccc2)cc1
AC50 [38]: 44.9 µM (active)

CCOC(=O)c1cc2c(=O)n3ccccc3nc2n(CCCOC)/c1=N\C(=O)c1ccncc1
AC50 [39]: 8.47 µM (active)

COc1ccc(C(=O)Nc2nnc(CC(=O)N/N=C/c3ccc(O)cc3O)s2)cc1
IC50 [40]: 2.33 µM (active) | IC50 [41]: 19.8 µM (active) | IC50 [42]: > 94.1 µM (inactive) | EC50 [43]: > 300 µM (not active)

COC(=O)C1=C(C)N(Cc2ccc(C(F)(F)F)cc2)C(NCc2ccccc2C(F)(F)F)=NC1c1ccc(F)cc1 (stereo not given)
IC50 [11]: > 96.6 µM (inactive)

C[C@@H]1CN([C@H](C)CO)C(=O)c2cc(N(C)C)ccc2O[C@@H](C)CCCCO[C@H]1CN(C)S(=O)(=O)c1ccc(F)cc1
AC50 [44]: 10.5 µM (active)

OC[C@@H]1Nc2ccc(C#Cc3ccc(F)cc3)cc2[C@H]2NCC[C@@H]12
AC50 [21]: 1.42 µM (active) | AC50 [23]: 1.15 µM (active) | AC50 [45]: 25.1 µM (active) | AC50 [27]: 2.36 µM (active) | AC50 [46]: 32.6 µM (active) | AC50 [29]: 0.822 µM (active)

COc1ccc2c3c(n(C)c2c1)[C@H](CO)N(Cc1ccc2c(c1)OCO2)CC31CN(C(=O)c2ccc3c(c2)OCO3)C1
AC50 [21]: 0.147 µM (active) | AC50 [23]: 0.141 µM (active) | AC50 [27]: 0.54 µM (active) | AC50 [46]: > 100 µM (inactive) | AC50 [44]: 0.236 µM (active) | AC50 [29]: 0.13 µM (active)
